In ChEMBL document CHEMBL3871268, “Chalcogen containing heterocyclic scaffolds: New hybrids with antitumoral activity” (Eur J Med Chem, 2016):
Residues, ends and D or L forms follow the SMILES beside them. *: point of attachment. Cbz = O=C(OCc1ccccc1)*; CH2F = FC*

What was measured:
[1] = Cytotoxicity against human 184B5 cells assessed as reduction in cell viability measured after 72 hrs by MTT assay; type: toxicity, cell-based; details: for GI50 at 72 h: 184B5 cells; for LC50 / TGI: 184b5, 72 h
[2] = Cytotoxicity against human PC3 cells assessed as reduction in cell viability measured after 72 hrs by MTT assay; type: functional; details: PC-3, 72 h
[3] = Cytotoxicity against human MCF7 cells assessed as reduction in cell viability measured after 72 hrs by MTT assay; type: functional; details: MCF7, 72 h
MCF7 = test: Selectivity index, ratio of GI50 for human 184B5 cells to GI50 for human MCF7 cells; type: functional
[4] = Cell cycle analysis in human MCF7 cells assessed as accumulation at G0/G1 phase at 6 uM measured after 24 hrs by propidium iodide staining-based flow cytometry (reference value: 73.6%); type: functional
[5] = Cell cycle analysis in human MCF7 cells assessed as accumulation at G2/M phase at 6 uM measured after 24 hrs by propidium iodide staining-based flow cytometry (reference value: 8.9%); type: functional
[6] = Cell cycle analysis in human MCF7 cells assessed as accumulation at SubG1 phase at 6 uM measured after 24 hrs by propidium iodide staining-based flow cytometry (reference value: 2.6%); type: functional
[7] = Cell cycle analysis in human MCF7 cells assessed as accumulation at S phase at 6 uM measured after 24 hrs by propidium iodide staining-based flow cytometry (reference value: 15.3%); type: functional
[8] = Cell cycle arrest in human MCF7 cells assessed as M1 quadrant cells at 50 uM pretreated with pan-caspase inhibitor Z-VAD-FMK for 1 hr followed by compound addition measured after 48 hrs by propidium iodide staining-based flow cytometry assay (reference value: 98.1%); type: functional; parameters: scale not given: the % may be the effect or the level left
[9] = Cell cycle arrest in human MCF7 cells assessed as sub-diploid cells at 50 uM pretreated with pan-caspase inhibitor Z-VAD-FMK for 1 hr followed by compound addition measured after 48 hrs by propidium iodide staining-based flow cytometry assay (reference value: 1.9%); type: functional; parameters: scale not given: the % may be the effect or the level left

| Structure (SMILES) | GI50 at 72 h [1] | LC50 [1] | TGI [1] | GI50 [2] | LC50 (concentration lethal to 50% of cells) [2] | TGI [2] | GI50 [3] | LC50 [3] | TGI [3] | RatioGI50 (MCF7) | Activity [4] | Activity [5] | Activity [6] | Activity [7] | Activity [8] | Activity [9] |
| --- | --- | --- | --- | --- | --- | --- | --- | --- | --- | --- | --- | --- | --- | --- | --- | --- |
| SCc1cc2c(cc1Br)OCO2 | > 100 µM | > 100 µM | > 100 µM | 87.5 µM | > 100 µM | > 100 µM | 3.2 µM | > 100 µM | > 100 µM | >37 | – | – | – | – | – | – |
| [SeH]c1nc2ccccc2s1 | – | – | – | > 50 µM | > 50 µM | > 50 µM | > 50 µM | > 50 µM | > 50 µM | – | – | – | – | – | – | – |
| C[Se]c1ccc2ccccc2n1 | – | – | – | 83.6 µM | > 100 µM | > 100 µM | 21 µM | > 100 µM | > 100 µM | – | – | – | – | – | – | – |
| N#C[Se]CN1C(=O)c2ccccc2C1=O | – | – | – | 11.2 µM | 56.7 µM | 32.1 µM | 15.4 µM | 93.4 µM | 56.1 µM | – | – | – | – | – | – | – |
| O=C1c2ccccc2C(=O)N1C[SeH] | 12.7 µM | 21.9 µM | 17.4 µM | 6.4 µM | 16.9 µM | 9.4 µM | 6 µM | 12.5 µM | 8.2 µM | 2.1 | – | – | – | – | – | – |
| C[Se]c1nc2ccccc2s1 | > 100 µM | > 100 µM | > 100 µM | > 100 µM | > 100 µM | > 100 µM | 7.2 µM | > 100 µM | > 100 µM | >13.9 | – | – | – | – | – | – |
| O=C1c2ccccc2C(=O)N1CS | – | – | – | 74.7 µM | > 100 µM | > 100 µM | > 100 µM | > 100 µM | > 100 µM | – | – | – | – | – | – | – |
| N#C[Se]Cc1cc2c(cc1Br)OCO2 | – | – | – | 24 µM | > 100 µM | 45.7 µM | 66.9 µM | > 100 µM | > 100 µM | – | – | – | – | – | – | – |
| CSc1nc2ccccc2s1 | – | – | – | 39.6 µM | – | – | – | – | – | – | – | – | – | – | – | – |
| CC[C@@]1(O)C(=O)OCc2c1cc1n(c2=O)Cc2cc3ccccc3nc2-1 | – | – | – | – | – | – | – | – | – | – | 54.6% | 25.8% | 4.4% | 16.3% | – | – |
| N#CSCc1ccc(-n2cccc2)cc1 | 12.9 µM | > 100 µM | 23.5 µM | 14.1 µM | 88.1 µM | 60.3 µM | 8.2 µM | > 100 µM | 36.9 µM | 1.6 | – | – | – | – | – | – |
| CSc1ccc2ccccc2n1 | > 100 µM | > 100 µM | > 100 µM | 87 µM | > 100 µM | > 100 µM | > 100 µM | > 100 µM | > 100 µM | – | – | – | – | – | – | – |
| N#C[Se]Cc1c2ccccc2nc2ccccc12 | – | – | – | 16.6 µM | 40 µM | 28.3 µM | 40.1 µM | 44.5 µM | 67.6 µM | – | – | – | – | – | – | – |
| [SeH]c1ccnc([SeH])n1 | 10.7 µM | 63.7 µM | 35.3 µM | 9.8 µM | 51.3 µM | 28.3 µM | 6.7 µM | 75.4 µM | 40 µM | 1.6 | – | – | – | – | – | – |
| N#CSc1nccc(Cl)n1 | – | – | – | > 100 µM | > 100 µM | > 100 µM | 35 µM | > 100 µM | > 100 µM | – | – | – | – | – | – | – |
| [SeH]Cc1cc2c(cc1Br)OCO2 | – | – | – | 34.6 µM | > 50 µM | > 50 µM | 22.2 µM | > 50 µM | > 50 µM | – | – | – | – | – | – | – |
| N#CSCN1C(=O)c2ccccc2C1=O | – | – | – | > 100 µM | > 100 µM | > 100 µM | 48.1 µM | > 100 µM | > 100 µM | – | – | – | – | – | – | – |
| Sc1nc2ccccc2s1 [2-MERCAPTOBENZOTHIAZOLE] | – | – | – | 84.9 µM | – | > 100 µM | > 100 µM | – | > 100 µM | – | – | – | – | – | – | – |
| N#CSCc1c2ccccc2nc2ccccc12 | 14.4 µM | 38.5 µM | 26.4 µM | 1.5 µM | 28.3 µM | 2.4 µM | 0.9 µM | 34.4 µM | 17.5 µM | 16 | – | – | – | – | – | – |
| N#CSc1nc2ccccc2s1 | – | – | – | 42 µM | 85.5 µM | 66.3 µM | 40.1 µM | 87.7 µM | 67.6 µM | – | – | – | – | – | – | – |
| Sc1ccc2ccccc2n1 | – | – | – | 85.3 µM | > 100 µM | > 100 µM | > 100 µM | > 100 µM | > 100 µM | – | – | – | – | – | – | – |
| CC(C)[C@H](NC(=O)OCc1ccccc1)C(=O)N[C@@H](C)C(=O)N[C@@H](CC(=O)O)C(=O)CF (Cbz-Val-Ala-Asp-CH2F) | – | – | – | – | – | – | – | – | – | – | – | – | – | – | 96.1% | 3.9% |
| Cc1noc(C)c1C[Se]C#N | 2 µM | 22.8 µM | 4 µM | 5.6 µM | 17.6 µM | 10.3 µM | 2.2 µM | 24.5 µM | 8.3 µM | <1 | – | – | – | – | – | – |
| CSc1ccnc(SC)n1 | – | – | – | 77.5 µM | > 100 µM | > 100 µM | > 100 µM | > 100 µM | > 100 µM | – | – | – | – | – | – | – |
| Sc1ccnc(S)n1 | – | – | – | 82.5 µM | > 100 µM | > 100 µM | > 100 µM | > 100 µM | > 100 µM | – | – | – | – | – | – | – |
| C[Se](=O)O | 1.8 µM | > 100 µM | 3.8 µM | 2.5 µM | 37.1 µM | 8.4 µM | 1.3 µM | > 100 µM | 3.4 µM | 1.4 | – | – | – | – | – | – |
| [SeH]Cc1c2ccccc2nc2ccccc12 | – | – | – | 83.2 µM | > 100 µM | > 100 µM | 39.1 µM | > 100 µM | > 100 µM | – | – | – | – | – | – | – |
| N#CSCc1cc2c(cc1Br)OCO2 | > 100 µM | > 100 µM | > 100 µM | 23.8 µM | 74.2 µM | 41.8 µM | 6.7 µM | > 100 µM | > 100 µM | >14.9 | – | – | – | – | – | – |
